Measurements as given in US20240166641A1, “HETEROCYCLES AND USES THEREOF” (Kumquat Biosciences Inc., priority 2021, published 2024).

Key:
OT-1 cells = test: T-cell activation: intracellular production of IFNγ and TNFα in exhausted OT-1 cells; assay type: cell-based; settings: 10 uM compound, OT-1 cells restimulated with 1 μM OVA, read-out: % TNFa + /IFNg + production in compound-treated cells (uM compound) relative to negative control (DMSO)
Description: 1*10^6 OT-1 cells are seeded in a 24well in a volume of 1 mL of RPMI/10% FCS, and activated with 10 nM OVA protein for 48 h. Cells are then split 1:4 into 96well plates after two washes in warm media. To induce exhaustion, cells are then expanded for 3 days in the presence of vehicle control or a compound described herein (e.g., PTPN2 inhibitor) various concentrations, as well as 5 ng/ml IL-7 and 5 ng/ml IL-15, with the addition of fresh OVA on each day. After this point, cells are treated with Brefeldin A and restimulated with 1 μM of OVA for 4-6h, and cells are stained to assess production of IFNγ and TNFα intracellularly by flow cytometry. The results are shown as increase in percentage production of IFNγ and TNFα in cells treated with an exemplified compound at 10 uM, relative to a negative control (DMSO) of cells without being treated with the compound but merely DMSO (a solvent in which exemplified compounds are dissolved). See Table 10 below summarizes percentage increase in IFNγ and TNFα intracellular production in cells treated with an exemplified compound (at 10 uM) or without it, relative to a negative control (DMSO).

[1] = test system: B16F10 mouse melanoma cells; test: MHC expression associated with IFNγ signaling, flow cytometry; assay type: cell-based; settings: B16-F10, 3 uM compound, 48 hours, normalized to DMSO/with IFNγ control, read-out: % MHC in cells treated with Compound at 3 uM relative to negative control (DMSO)
Description: B16F10 mouse melanoma cells (ATCC Cat #CRL-6475, Manassas, VA) are seeded at approximately a density of 500 cells per well in a 384-well clear bottom plate (Corning Cat #3765, Corning, 5 NY) in 25 μL total volume of DMEM+10% FBS (Sigma Cat #D6429 and Sigma Cat #F4135, St. Louis, MO). Cells are allowed to adhere overnight at 37° C.+5% CO2. On the following day, 12.5 μL of mouse IFNγ (RD systems Cat #485-MI/CF, Minneapolis, MN) is added to half of the plate (columns 13-24) at a concentration of 2 ng/mL for a final assay concentration of 0.5 ng/mL of IFNγ. Media only (12.5 μL of DMEM+10% FBS) is added to the remainder of the 10 plate (columns 1-12). Next, compounds resuspended in DMSO (Sigma Cat #D2650) at 100 mM are diluted in semi-log dilutions in DMSO ranging from 100 mM to 0.001 mM and DMSO only controls are included. The compound/DMSO dilutions are further diluted 1:250 in DMEM+10% FBS, and 12.5 μL of these dilutions are added in triplicates to cells of both treatment arms (with and without IFNγ). Compounds are only dosed in the inner 240 wells, avoiding the outer 2-well perimeter of the plate to minimize edge effects. Finally, the plate is loaded into an IncuCyte® S3 Live Cell Analysis System (Essen Bioscience-Sartorius, Ann Arbor, MI) maintained in a 37° C.+5% CO2 incubator, allowed to equilibrate for 2 hours, and treated for 48 hours. MHC levels are measured by flow cytometry using a FITC anti-mouse H-2kb antibody (clone AF6-88.5), and levels are normalized based on DMSO/with IFNγ control. Table 7 below summarizes the percentage in MHC expression in cells treated with or without compounds disclosed herein at a specified concentration.

| Structure (SMILES) | activity at 10 µM (OT-1 cells) [%] | activation at 3 µM [1] [%] |
| --- | --- | --- |
| COc1ccc2cc(O)c(N3CC(=O)NS3(=O)=O)c(F)c2n1 [Compound 154] | 152 | > 10 |
| CC(C)CCNc1ccc2cc(O)c(N3CC(=O)NS3(=O)=O)c(F)c2n1 [Compound 117] | 236 | > 10 |
| CN1CCCC(COc2ccc3cc(O)c(N4CC(=O)NS4(=O)=O)c(F)c3n2)C1 (centres unmarked) [Compound 176] | 193 | > 10 |
| CN(C)CCOc1ccc2cc(O)c(N3CC(=O)NS3(=O)=O)c(F)c2n1 [Compound 178] | 168 | > 10 |
| CC(C)CCOc1ccc2cc(O)c(N3CC(=O)NS3(=O)=O)c(F)c2n1 [Compound 135, 5-(8-fluoro-6-hydroxy-2-(isopentyloxy)quinolin-7-yl)-1,2,5-thiadiazolidin-3-one 1,1-dioxide] | 504 | > 10 |
| O=C1CN(c2c(O)cc3ccc(OCC4CCS(=O)(=O)CC4)nc3c2F)S(=O)(=O)N1 [Compound 143] | 174 | > 10 |
| CNc1ccc2cc(O)c(N3CC(=O)NS3(=O)=O)c(F)c2n1 [Compound 153] | 132 | > 10 |
